# Measured values from patent US12285034B2, “Human and non-human animal use of microbial anaplerotic oil” (HELIAE DEVELOPMENT, LLC, priority 2017, dated 2025).
# How the values were obtained:
# [1] = test system: Aurantiochytrium acetophilum HS399; format: cell-based; settings: acetic acid titrant (control), pH 7
# Experimental: In this implementation, initially (24 h incubation), the culture pH may not be controlled, and the pH of the respective treatments can drift from 7.5 to 8. After 24 h incubation, the desired pH set point of each treatment can be set using the respective organic acids. […] The cultures are aerated at 1.4 vvm and maintained at 27° C. under axenic conditions. […] This medium also contains a trace element solution (5 ml/L) and a vitamin solution (1 ml/L). The trace element solution can contain (g/L): […] […] Residual glucose is analyzed from culture supernatant (5000 g; 5 min) using a colorimetric method based on glucose […] activity. Residual acetate and propionate are analyzed by HPLC using external standard.
# [2] = test system: Yarrowia lipolytica ATCC18944; format: cell-based; settings: 192 h, itaconic acid 0.5 / propionate 6 g/L
# Experimental: Culture conditions. In one implementation, Yarrowia lipolytica ATCC18944 can be cultivated in triplicates (n=3) in a medium containing (g/L): glycerol (80), monosodium […]), yeast extract (1), NaCl (12.5), MgSO4 (7), H2O (2.5), KCl (0.5), CaCl2 (0.1), KH2PO4 (0.5), trace metal solution (5 mL) and vitamin solution (1 mL). The trace element solution may contain (g/L): […] The vitamin solution can be filter-sterilized (e.g., using 0.2 μm pore size filter) containing (mg L-1): thiamine (100), biotin (0.5) and cyanocobalamin (0.5) unless otherwise stated. In some implementations cyanocobalamin might be added to or subtracted from the medium formulation to change or impact propionic acid deposition in OCFA. […] In one implementation, a concentration of the cyanocobalamin and/or cobalt in the culture medium can be below 0.4 μM. […] The flasks can be incubated in the dark in an orbital shaker at 180 rpm, 27° C. In this implementation, sodium propionate is fed batch every day according to respective treatments. […] Analyses. Cell dry weights can be obtained by drying samples that are previously vacuum filtrated (e.g., using 0.2 μm pore size filters). Residual propionate is analyzed directly by high performance liquid chromatography (HPLC). Lipids and total fatty acids are analyzed using a direct extraction, transesterification followed by gas chromatography (GC) and detection by flame ionization (FID). The different fatty acids are identified and quantified using appropriate internal and external standards. Propionic acid deposition rate.
# [3] = test system: Aurantiochytrium acetophilum HS399; experiment: Alternative promoters of OCFA production (Example 17); settings: for capacity to induce the production of OCFAs: flask cultures
# Experimental: Further, it may be beneficial to find alternative promotors to produce OCFA that are less toxic to the model organisms or that are simpler. In this implementation, pentanoate, heptanoate, yeast extract, proteose peptone, methionine, valine and isoleucine are evaluated for their capacity to induce the production of OCFAs. Erlenmeyer flasks can be used and A. acetophilum HS399 can be cultured following the protocols described herein.
# In this implementation, respective flasks can be supplemented with different concentrations of the proposed promoters and the resulting biomass harvested and analyzed for total lipid and fatty acid analyses.
# [4] = test system: Aurantiochytrium acetophilum HS399; experiment: Cyanocobalamin and propionate deposition, flask (Example 10); format: cell-based
# [5] = test system: Aurantiochytrium acetophilum HS399; experiment: Cyanocobalamin impact on glucose metabolism (Examples 16, 20); format: cell-based; settings: cyanocobalamin 0.37 μM vs 0, propionic acid 3 and 9 g/L
# Experimental: (§1) As described above, OCFAs anaplerosis can merely take place in the presence of cyanocobalamin. In this implementation, the cell dry weight and residual propionate can be monitored, and residual glucose in the media can be analyzed.
# (§2) Aurantiochytrium acetophilum HS399 was cultivated in the presence and absence of cyanocobalamin. […] The vitamin solution contained (mg/L): thiamine (100) and biotin (0.5). All culture materials were autoclaved (121° C., 15 min) and media was filter sterilized before use. […] Biomass for lipid analysis was centrifuged and washed using purified water. The washed biomass was freeze dried.
# as §1, with “analyzed. […] Cell dry weight reached the same titers independently of the cyanocobalamin concentration.” for “analyzed.”
# [6] = test system: Aurantiochytrium acetophilum HS399; experiment: Cyanocobalamin impact on propionate metabolism (Example 21); format: cell-based
# Experimental: as §2, with “cyanocobalamin. […] The trace element solution contained (g/L):” for “cyanocobalamin.”, “dried. […] As described above, OCFAs anaplerosis can merely take place in the presence of cyanocobalamin. In this implementation, the cell dry weight and residual propionate can be monitored, and residual glucose in the media can be analyzed.” for “dried.”
# [7] = cyanocobalamin 370 nM vs 0, propionic acid 16 g/L
molecule,measurement,setting,value
"CC(=O)O [Acetic acid, acetic acid, reference compound]",Total Fatty Acid,[1],71.9 ± 5.2 % CDW
same,Total Lipids,[1],89.5 ± 0.5 % CDW
"C=C(CC(=O)O)C(=O)O [Itaconic acid, itaconic acid, reference compound]",Cell dry weight,[2],7.9 ± 1.1 g/L
same,Consumed propionate,[2],5.0 ± 1.6 g/L
same,Odd chain fatty acids,[2],1.1 ± 0.6 % DW
same,Propionic acid deposition,[2],0.5 ± 0.2%
"CCCCCCC(=O)O [heptanoate, heptanoic acid]",toxicity (growth inhibition),[3]; FIG. 53,higher than that of propionic acid
CC[C@H](C)[C@H](N)C(=O)O [isoleucine],capacity to induce the production of OCFAs,[3],identified as a nitrogen and OCFAs source
"CSCC[C@H](N)C(=O)O [methionine, reference compound]",effect of supplementation on growth,"[4]; 0.5 g/L, with or without cyanocobalamin 0.00037 μM",does not appear to have an impact in growth
CC(C)[C@H](N)C(=O)O [valine],capacity to induce the production of OCFAs,[3],identified as a nitrogen and OCFAs source
cyanocobalamin,effect of cyanocobalamin deprived media on growth,[4]; over 10 generations,substantially no impact on growth
same,glucose uptake rate,[5],significantly (P<0.01 t-student) lower
same,growth in the first 48 hrs,[5],may not be impacted
same,effect on cell dry weight,[6]; [7],positive difference in cell dry weight
same,glucose uptake rate,[6]; [7],significantly (P<0.01 t-student) lower
same,residual propionate in cultures deficient in cyanocobalamin,"[6]; propionic acid 16 g/L, FIG. 58",chronical higher residual propionate
